# Data published in patent US6358885B1, “Substituted phenylheterocyclic herbicides” (Mississippi State University, priority 1992, dated 2002).
# How the values were obtained:
# wheat [1] = experiment: Test C preemergence/postemergence greenhouse plant response rating 0 to 100; type: in vivo, Triticum aestivum; conditions: for Plant response rating, Wheat: 125 g/ha, 0 to 100 scale
# In short: (§1)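 Compounds in non-phytotoxic solvent went onto sandy loam before emergence (seeded one day earlier) or onto plants at the one-to-four leaf stage. Duck salad was treated via flood water (~2.5 cm, maintained) over silt loam.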
# wheat [2] = experiment: Test B preemergence/postemergence greenhouse plant response rating 0 to 10; type: in vivo, Triticum aestivum; conditions: for Plant response rating, Wheat: 0 to 10 scale
# In short: (§2)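 Test chemicals were sprayed onto freshly planted seed and, concurrently, onto young plants between the one and four leaf stage. After a twelve- to sixteen-day greenhouse period, each species was visually compared with untreated controls.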
# bedstraw = experiment: Test C preemergence/postemergence greenhouse plant response rating 0 to 100; type: in vivo, Galium aparine; conditions: for Plant response rating, Bedstraw: 125 g/ha, 0 to 100 scale
# In short: as §1
# barnyardgrass = experiment: Test B preemergence/postemergence greenhouse plant response rating 0 to 10; type: in vivo, Echinochloa crus-galli; conditions: for Plant response rating, Barnyardgrass: 0 to 10 scale
# In short: as §2
# giant foxtail = experiment: Test C preemergence/postemergence greenhouse plant response rating 0 to 100; type: in vivo, Setaria faberii; conditions: for Plant response rating, Giant foxtail: 125 g/ha, 0 to 100 scale
# In short: as §1
# blackgrass = experiment: as above; type: in vivo, Alopecurus myosuroides; conditions: for Plant response rating, Blackgrass: 125 g/ha, 0 to 100 scale
# In short: as §1
# morningglory = experiment: Test B preemergence/postemergence greenhouse plant response rating 0 to 10; type: in vivo, Ipomoea hederacea; conditions: for Plant response rating, Morningglory: 0 to 10 scale
# In short: as §2
# cotton = experiment: as above; type: in vivo, Gossypium hirsutum; conditions: for Plant response rating, Cotton: 0 to 10 scale
# In short: as §2
# wild oat = experiment: Test C preemergence/postemergence greenhouse plant response rating 0 to 100; type: in vivo, Avena fatua; conditions: for Plant response rating, Wild oat: 125 g/ha, 0 to 100 scale
# In short: as §1
# crabgrass = experiment: as above; type: in vivo, Digitaria sanguinalis; conditions: for Plant response rating, Crabgrass: 125 g/ha, 0 to 100 scale
# In short: as §1
# velvetleaf = experiment: Test B preemergence/postemergence greenhouse plant response rating 0 to 10; type: in vivo, Abutilon theophrasti; conditions: for Plant response rating, Velvetleaf: 0 to 10 scale
# In short: as §2
# rape = experiment: Test C preemergence/postemergence greenhouse plant response rating 0 to 100; type: in vivo, Brassica napus; conditions: for Plant response rating, Rape: 125 g/ha, 0 to 100 scale
# In short: as §1
# speedwell = experiment: as above; type: in vivo, Veronica persica; conditions: for Plant response rating Speedwell: 125 g/ha, 0 to 100 scale
# In short: as §1
structure (smiles),measurement,setting,value
CCOCOc1cc(-c2nn3c(c2Cl)CCCC3)c(F)cc1Cl [Compound 59],"Plant response rating, Wheat",wheat [1]; POSTEMERGENCE,70
same,"Plant response rating (0 to 100), Wheat","wheat [1]; POSTEMERGENCE, Rate 2 g/ha",10
same,"Plant response rating, Wheat",wheat [1]; PREEMERGENCE,10
same,"Plant response rating (0 to 100), Wheat","wheat [1]; PREEMERGENCE, Rate 2 g/ha",0
same,"Plant response rating (0 to 100), Wheat","wheat [1]; Rate 8 g/ha, POSTEMERGENCE",40
same,"Plant response rating (0 to 100), Wheat","wheat [1]; Rate 8 g/ha, PREEMERGENCE",0
same,"Plant response rating (0 to 100), Wheat","wheat [1]; Rate 31 g/ha, POSTEMERGENCE",60
same,"Plant response rating (0 to 100), Wheat","wheat [1]; Rate 31 g/ha, PREEMERGENCE",0
same,"Plant response rating, Wheat","wheat [2]; POSTEMERGENCE, Rate 50 g/ha",7
same,"Plant response rating, Wheat","wheat [2]; PREEMERGENCE, Rate 50 g/ha",4
same,"Plant response rating (0 to 10 scale), Wheat","wheat [2]; PREEMERGENCE, Rate 200 g/ha",4
same,"Plant response rating, Wheat","wheat [2]; Rate 200 g/ha, POSTEMERGENCE",6
same,"Plant response rating, Bedstraw",bedstraw; POSTEMERGENCE,100
same,"Plant response rating (0 to 100), Bedstraw","bedstraw; POSTEMERGENCE, Rate 2 g/ha",50
same,"Plant response rating, Bedstraw",bedstraw; PREEMERGENCE,70
same,"Plant response rating (0 to 100), Bedstraw","bedstraw; PREEMERGENCE, Rate 2 g/ha",0
same,"Plant response rating (0 to 100), Bedstraw","bedstraw; Rate 8 g/ha, POSTEMERGENCE",75
same,"Plant response rating (0 to 100), Bedstraw","bedstraw; Rate 8 g/ha, PREEMERGENCE",0
same,"Plant response rating (0 to 100), Bedstraw","bedstraw; Rate 31 g/ha, POSTEMERGENCE",100
same,"Plant response rating (0 to 100), Bedstraw","bedstraw; Rate 31 g/ha, PREEMERGENCE",50
same,"Plant response rating, Barnyardgrass","barnyardgrass; POSTEMERGENCE, Rate 50 g/ha",5
same,"Plant response rating, Barnyardgrass","barnyardgrass; PREEMERGENCE, Rate 50 g/ha",6
same,"Plant response rating (0 to 10 scale), Barnyardgrass","barnyardgrass; PREEMERGENCE, Rate 200 g/ha",8
same,"Plant response rating, Barnyardgrass","barnyardgrass; Rate 200 g/ha, POSTEMERGENCE",9
same,"Plant response rating, Giant foxtail",giant foxtail; POSTEMERGENCE,90
same,"Plant response rating (0 to 100), Giant foxtail","giant foxtail; POSTEMERGENCE, Rate 2 g/ha",20
same,"Plant response rating, Giant foxtail",giant foxtail; PREEMERGENCE,90
same,"Plant response rating (0 to 100), Giant foxtail","giant foxtail; PREEMERGENCE, Rate 2 g/ha",0
same,"Plant response rating (0 to 100), Giant foxtail","giant foxtail; Rate 8 g/ha, POSTEMERGENCE",40
same,"Plant response rating (0 to 100), Giant foxtail","giant foxtail; Rate 8 g/ha, PREEMERGENCE",10
same,"Plant response rating (0 to 100), Giant foxtail","giant foxtail; Rate 31 g/ha, POSTEMERGENCE",70
same,"Plant response rating (0 to 100), Giant foxtail","giant foxtail; Rate 31 g/ha, PREEMERGENCE",50
same,"Plant response rating, Blackgrass",blackgrass; POSTEMERGENCE,70
same,"Plant response rating (0 to 100), Blackgrass","blackgrass; POSTEMERGENCE, Rate 2 g/ha",20
same,"Plant response rating, Blackgrass",blackgrass; PREEMERGENCE,90
same,"Plant response rating (0 to 100), Blackgrass","blackgrass; PREEMERGENCE, Rate 2 g/ha",0
same,"Plant response rating (0 to 100), Blackgrass","blackgrass; Rate 8 g/ha, POSTEMERGENCE",30
same,"Plant response rating (0 to 100), Blackgrass","blackgrass; Rate 8 g/ha, PREEMERGENCE",20
same,"Plant response rating (0 to 100), Blackgrass","blackgrass; Rate 31 g/ha, POSTEMERGENCE",50
same,"Plant response rating (0 to 100), Blackgrass","blackgrass; Rate 31 g/ha, PREEMERGENCE",50
same,"Plant response rating, Morningglory","morningglory; POSTEMERGENCE, Rate 50 g/ha",8
same,"Plant response rating, Morningglory","morningglory; PREEMERGENCE, Rate 50 g/ha",2
same,"Plant response rating (0 to 10 scale), Morningglory","morningglory; PREEMERGENCE, Rate 200 g/ha",6
same,"Plant response rating, Morningglory","morningglory; Rate 200 g/ha, POSTEMERGENCE",10
same,"Plant response rating, Cotton","cotton; POSTEMERGENCE, Rate 50 g/ha",10
same,"Plant response rating, Cotton","cotton; PREEMERGENCE, Rate 50 g/ha",4
same,"Plant response rating (0 to 10 scale), Cotton","cotton; PREEMERGENCE, Rate 200 g/ha",7
same,"Plant response rating, Cotton","cotton; Rate 200 g/ha, POSTEMERGENCE",10
same,"Plant response rating, Wild oat",wild oat; POSTEMERGENCE,60
same,"Plant response rating (0 to 100), Wild oat","wild oat; POSTEMERGENCE, Rate 2 g/ha",10
same,"Plant response rating, Wild oat",wild oat; PREEMERGENCE,30
same,"Plant response rating (0 to 100), Wild oat","wild oat; PREEMERGENCE, Rate 2 g/ha",0
same,"Plant response rating (0 to 100), Wild oat","wild oat; Rate 8 g/ha, POSTEMERGENCE",30
same,"Plant response rating (0 to 100), Wild oat","wild oat; Rate 8 g/ha, PREEMERGENCE",0
same,"Plant response rating (0 to 100), Wild oat","wild oat; Rate 31 g/ha, POSTEMERGENCE",40
same,"Plant response rating (0 to 100), Wild oat","wild oat; Rate 31 g/ha, PREEMERGENCE",0
same,"Plant response rating, Crabgrass",crabgrass; POSTEMERGENCE,70
same,"Plant response rating (0 to 100), Crabgrass","crabgrass; POSTEMERGENCE, Rate 2 g/ha",10
same,"Plant response rating, Crabgrass",crabgrass; PREEMERGENCE,90
same,"Plant response rating (0 to 100), Crabgrass","crabgrass; PREEMERGENCE, Rate 2 g/ha",0
same,"Plant response rating (0 to 100), Crabgrass","crabgrass; Rate 8 g/ha, POSTEMERGENCE",30
same,"Plant response rating (0 to 100), Crabgrass","crabgrass; Rate 8 g/ha, PREEMERGENCE",0
same,"Plant response rating (0 to 100), Crabgrass","crabgrass; Rate 31 g/ha, POSTEMERGENCE",40
same,"Plant response rating (0 to 100), Crabgrass","crabgrass; Rate 31 g/ha, PREEMERGENCE",30
same,"Plant response rating, Velvetleaf","velvetleaf; POSTEMERGENCE, Rate 50 g/ha",8
same,"Plant response rating, Velvetleaf","velvetleaf; PREEMERGENCE, Rate 50 g/ha",10
same,"Plant response rating (0 to 10 scale), Velvetleaf","velvetleaf; PREEMERGENCE, Rate 200 g/ha",10
same,"Plant response rating, Velvetleaf","velvetleaf; Rate 200 g/ha, POSTEMERGENCE",10
same,"Plant response rating, Rape",rape; POSTEMERGENCE,100
same,"Plant response rating (0 to 100), Rape","rape; POSTEMERGENCE, Rate 2 g/ha",20
same,"Plant response rating, Rape",rape; PREEMERGENCE,40
same,"Plant response rating (0 to 100), Rape","rape; PREEMERGENCE, Rate 2 g/ha",0
same,"Plant response rating (0 to 100), Rape","rape; Rate 8 g/ha, POSTEMERGENCE",40
same,"Plant response rating (0 to 100), Rape","rape; Rate 8 g/ha, PREEMERGENCE",0
same,"Plant response rating (0 to 100), Rape","rape; Rate 31 g/ha, POSTEMERGENCE",70
same,"Plant response rating (0 to 100), Rape","rape; Rate 31 g/ha, PREEMERGENCE",0
same,Plant response rating Speedwell,speedwell; POSTEMERGENCE,100
same,"Plant response rating (0 to 100), Speedwell","speedwell; POSTEMERGENCE, Rate 2 g/ha",100
same,Plant response rating Speedwell,speedwell; PREEMERGENCE,100
same,"Plant response rating (0 to 100), Speedwell","speedwell; Rate 8 g/ha, POSTEMERGENCE",100
same,"Plant response rating (0 to 100), Speedwell","speedwell; Rate 8 g/ha, PREEMERGENCE",50
same,"Plant response rating (0 to 100), Speedwell","speedwell; Rate 31 g/ha, POSTEMERGENCE",100
same,"Plant response rating (0 to 100), Speedwell","speedwell; Rate 31 g/ha, PREEMERGENCE",100
